According to patent publication US20250145589A1, “PYRIDINE DERIVATIVE AND USE THEREOF” (SICHUAN HUIYU PHARMACEUTICAL CO., LTD., priority 2021, published 2025):
Read-outs that look alike come from different tables or passages of the source.

What was measured:
[1] = system: NCI-H358 cells (KRAS G12C mutant); assay: NCI-H358 cell proliferation inhibition (CellTiter-Glo); format: cell-based; conditions: Homo sapiens, NCI-H358, 72 h; H358 cells (G12C mutation), 3 days, Table 6; read-out: NCI-H358 (IC50)
Protocol: The CellTiter-Glo®, assay was used to detect the number of viable cells, in order to evaluate the anti-proliferation efficacy of compounds. […] The compounds were serially diluted 5-fold in DMSO to obtain 8 concentrations, and then further diluted with RPMI-640 (10% FBS) cell culture medium to obtain the working solutions (5′), 20 μL of each working solution was added to the cell culture supernatant in each well, and the plate was further incubated for 3 days at 37° C. with 5% CO2. The plate was then equilibrated with CellTiter-Glo® reagent at room temperature (25° C.) for 10-30 minutes. After aspirating 50 μL of the medium, 50 μL of CellTiter-Glo® reagent was added. The cells were thoroughly mixed with the CellTiter-Glo® reagent using a microplate shaker for 2 minutes, and then incubated at room temperature for 10 minutes. The 96-well plate was placed in a multi-mode microplate reader to record the luminescence values (RLU). The inhibition rate was calculated through the following equation: [formula] Data were analyzed using GraphPad Prism for IC50 values (Note: The negative control refers to the group without inhibitor).

PI3Kα = PI3Kα (Homo sapiens (Human), UniProt P42336); assay: Inhibition of PI3Kα efficacy assay (ADP-Glo kinase assay); format: biochemical; conditions: read-out: PI3Kα inhibitory activity (IC50)
Protocol: Inhibition of PI3Kα Efficacy assay The ADP-Glo™ kinase assay was used to assess the inhibition of PI3Kα with our compounds. The utilized proteins and assay reagents were obtained from the ADP-Glo™ Kinase Assay Kit (Promega). Initially, a 2 mM stock solution of the test compound (dissolved in DMSO) was serially diluted in five-fold concentrations using DMSO to obtain eight working solutions 1 (200′). […] Subsequently, 2 μL of 2.5×PI and ATP solution mixture were added to each well, mixed, and incubated at RT for 60 minutes. Then, 5 μL of ADP-Glo (containing 10 mM MgCl2) reagent was added to each well, mixed, and incubated at RT for 40 minutes. Finally, 10 μL of the Kinase Detection Reagent was added to each well, mixed, and incubated at RT for 40 minutes. […] Data were analyzed using GraphPad Prism with log(inhibitor) vs. response—Variable Slope(four parameters) fitting calculations for […]. (Note: The negative control refers to the group without inhibitor, and the blank control refers to the group without enzyme.) The data were presented in Tables 1 to 4.

PI3Kδ = PI3Kδ (Homo sapiens (Human), UniProt O00329); assay: Inhibition of PI3Kδ efficacy assay (ADP-Glo kinase assay); format: biochemical; conditions: read-out: PI3Kδ inhibitory activity (IC50)
Protocol: Test Example 2: Inhibition of PI3Kδ Efficacy assay The ADP-Glo™ kinase assay was used to assess the inhibition of PI3Kδ with our compounds. The utilized proteins and assay reagents were obtained from the ADP-Glo™ Kinase Assay Kit (Promega). Initially, a 2 mM stock solution of the test compound (dissolved in DMSO) was serially diluted in five-fold concentrations using DMSO to obtain eight working solutions 1 (200×) Subsequently, each of the eight working solutions 1 was further diluted in a 20-fold gradient by adding 5 μL into 95 μL of ddH2O, resulting in eight working solutions 2 (10×). […] Subsequently, 2 μL of 2.5×PI and ATP solution mixture were added to each well, mixed, and incubated at RT for 60 minutes. Then, 5 μL of ADP-Glo (containing 10 mM MgCl2) reagent was added to each well, mixed, and incubated at RT for 40 minutes. Finally, 10 μL of the Kinase Detection Reagent was added to each well, mixed, and incubated at RT for 40 minutes. Luminescence values were recorded using a multi-mode microplate reader with luminescence channel settings, and the inhibitory rate was calculated using the following formula: [formula] Data were analyzed using GraphPad Prism with log(inhibitor) vs. response—Variable Slope(four parameters) fitting calculations for IC50 values.

Sequence of PI3Kα (P42336 whole entry): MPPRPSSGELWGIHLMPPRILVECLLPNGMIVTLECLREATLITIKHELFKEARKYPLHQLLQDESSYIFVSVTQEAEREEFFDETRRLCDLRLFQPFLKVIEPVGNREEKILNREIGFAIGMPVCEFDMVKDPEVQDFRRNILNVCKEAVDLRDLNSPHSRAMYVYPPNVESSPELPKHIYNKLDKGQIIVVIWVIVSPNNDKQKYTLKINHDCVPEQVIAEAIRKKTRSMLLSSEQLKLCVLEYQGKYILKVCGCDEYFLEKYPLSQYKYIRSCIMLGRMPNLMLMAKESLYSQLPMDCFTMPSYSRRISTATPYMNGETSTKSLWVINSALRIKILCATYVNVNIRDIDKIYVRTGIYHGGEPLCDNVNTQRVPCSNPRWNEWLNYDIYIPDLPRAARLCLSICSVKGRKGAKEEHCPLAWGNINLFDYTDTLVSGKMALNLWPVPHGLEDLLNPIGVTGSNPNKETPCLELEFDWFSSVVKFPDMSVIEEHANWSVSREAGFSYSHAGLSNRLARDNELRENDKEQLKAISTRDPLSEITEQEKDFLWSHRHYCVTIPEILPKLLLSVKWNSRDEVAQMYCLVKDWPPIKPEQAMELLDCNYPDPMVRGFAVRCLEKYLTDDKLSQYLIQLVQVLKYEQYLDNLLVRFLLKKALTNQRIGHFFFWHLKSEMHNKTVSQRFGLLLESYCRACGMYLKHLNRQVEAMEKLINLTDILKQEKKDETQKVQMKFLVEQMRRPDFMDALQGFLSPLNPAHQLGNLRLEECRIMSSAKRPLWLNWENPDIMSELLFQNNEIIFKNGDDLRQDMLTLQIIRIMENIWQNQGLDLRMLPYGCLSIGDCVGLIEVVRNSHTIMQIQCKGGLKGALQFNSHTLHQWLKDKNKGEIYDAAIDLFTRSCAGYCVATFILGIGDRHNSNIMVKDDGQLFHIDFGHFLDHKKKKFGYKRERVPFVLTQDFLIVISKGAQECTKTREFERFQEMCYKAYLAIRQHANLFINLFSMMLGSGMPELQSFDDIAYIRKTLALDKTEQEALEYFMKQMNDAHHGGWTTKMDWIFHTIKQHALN
Sequence of PI3Kα (P27986 whole entry partner): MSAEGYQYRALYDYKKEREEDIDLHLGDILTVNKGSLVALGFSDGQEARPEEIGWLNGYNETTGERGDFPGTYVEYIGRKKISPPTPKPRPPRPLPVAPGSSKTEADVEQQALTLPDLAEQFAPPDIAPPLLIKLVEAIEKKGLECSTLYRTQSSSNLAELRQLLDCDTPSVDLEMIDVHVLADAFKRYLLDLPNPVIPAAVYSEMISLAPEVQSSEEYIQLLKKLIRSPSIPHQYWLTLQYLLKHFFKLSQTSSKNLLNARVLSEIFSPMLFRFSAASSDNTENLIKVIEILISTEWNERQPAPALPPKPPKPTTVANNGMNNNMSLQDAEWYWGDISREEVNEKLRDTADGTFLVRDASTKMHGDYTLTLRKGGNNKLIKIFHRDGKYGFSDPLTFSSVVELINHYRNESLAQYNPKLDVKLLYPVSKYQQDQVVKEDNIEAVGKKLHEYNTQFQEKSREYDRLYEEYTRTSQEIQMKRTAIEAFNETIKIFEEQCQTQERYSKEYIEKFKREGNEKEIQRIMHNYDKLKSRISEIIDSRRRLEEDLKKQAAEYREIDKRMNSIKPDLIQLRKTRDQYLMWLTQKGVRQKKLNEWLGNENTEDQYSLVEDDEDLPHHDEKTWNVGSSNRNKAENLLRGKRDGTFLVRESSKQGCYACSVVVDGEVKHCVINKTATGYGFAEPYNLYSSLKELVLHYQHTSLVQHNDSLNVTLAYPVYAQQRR
Sequence of PI3Kδ (O00329 whole entry): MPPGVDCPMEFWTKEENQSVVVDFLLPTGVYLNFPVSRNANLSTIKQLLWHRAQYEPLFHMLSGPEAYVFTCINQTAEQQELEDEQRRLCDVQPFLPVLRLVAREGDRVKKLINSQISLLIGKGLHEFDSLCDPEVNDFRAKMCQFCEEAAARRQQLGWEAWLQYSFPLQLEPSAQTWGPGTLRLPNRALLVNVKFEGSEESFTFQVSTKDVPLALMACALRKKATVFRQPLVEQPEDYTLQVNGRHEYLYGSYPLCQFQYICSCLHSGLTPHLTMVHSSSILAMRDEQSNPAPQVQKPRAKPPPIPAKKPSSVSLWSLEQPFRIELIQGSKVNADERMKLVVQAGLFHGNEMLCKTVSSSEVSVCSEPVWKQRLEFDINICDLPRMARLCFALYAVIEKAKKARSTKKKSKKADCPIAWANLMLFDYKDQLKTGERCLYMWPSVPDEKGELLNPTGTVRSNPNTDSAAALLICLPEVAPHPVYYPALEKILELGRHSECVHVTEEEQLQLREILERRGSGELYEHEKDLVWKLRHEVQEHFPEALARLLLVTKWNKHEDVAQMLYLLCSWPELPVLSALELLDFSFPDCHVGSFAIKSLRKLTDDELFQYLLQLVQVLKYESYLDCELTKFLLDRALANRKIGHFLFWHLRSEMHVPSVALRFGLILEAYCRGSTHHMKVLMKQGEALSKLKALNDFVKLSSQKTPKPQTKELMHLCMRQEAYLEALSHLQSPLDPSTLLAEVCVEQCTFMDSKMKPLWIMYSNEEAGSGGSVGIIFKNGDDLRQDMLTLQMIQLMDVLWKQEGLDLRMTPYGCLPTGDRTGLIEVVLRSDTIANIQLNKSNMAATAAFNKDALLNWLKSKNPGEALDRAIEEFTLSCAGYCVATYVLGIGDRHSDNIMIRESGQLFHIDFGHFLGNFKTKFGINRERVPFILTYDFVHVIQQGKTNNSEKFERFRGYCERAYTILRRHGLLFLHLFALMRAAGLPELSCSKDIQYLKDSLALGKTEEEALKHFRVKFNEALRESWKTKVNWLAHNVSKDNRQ
Sequence of PI3Kδ (P27986 whole entry partner): as the sequence (P27986 whole entry partner) above

Structure (SMILES)	IC50 [1]	IC50 (PI3Kα; Table 2)	IC50 (PI3Kδ; Table 2)	IC50 (PI3Kα; Table 4)	IC50 (PI3Kδ; Table 1)
C=CC(=O)N1CCN(c2ncnc3ccc(-c4cnc(OC)c(NS(=O)(=O)c5c(F)cc(F)cc5F)c4)cc23)CC1 [Example 100, N-(5-(4-(4-acryloylpiperazin-1-yl)quinazolin-6-yl)-2-methoxypyridin-3-yl)-2,4,6-trifluorobenzenesulfonamide]	155 nM	0.54 nM			
CC(=O)/C=C/C(=O)N1CCN(c2ncnc3ccc(-c4cnc(OC5CC5)c(NS(=O)(=O)c5ccc(F)cc5F)c4)cc23)CC1 [Example 110, (E)-N-(2-cyclopropoxy-5-(4-(4-(4-oxopent-2-enoyl)piperazin-1-yl)quinazolin-6-yl)pyridin-3-yl)-2,4-difluorobenzenesulfonamide]	155 nM	3.5 nM			
C=C(F)C(=O)N1CCN(c2ncnc3ccc(-c4cnc(OC)c(NS(=O)(=O)c5c(F)cccc5F)c4)cc23)C[C@@H]1CC#N [Example 115, (S)-N-(5-(4-(3-(cyanomethyl)-4-(2-fluoroacryloyl)piperazin-1-yl)quinazolin-6-yl)-2-methoxypyridin-3-yl)-2,6-difluorobenzenesulfonamide]	46.5 nM	1.9 nM			
C=CC(=O)N1CCN(c2ncnc3ccc(-c4cnc(OC)c(NS(=O)(=O)c5c(F)cccc5F)c4)cc23)C[C@@H]1CC#N [Example 117, (S)-N-(5-(4-(4-acryloyl-3-(cyanomethyl)piperazin-1-yl)quinazolin-6-yl)-2-methoxypyridin-3-yl)-2,6-difluorobenzenesulfonamide]	37 nM	1.5 nM			
COc1ncc(-c2ccc3ncnc(N4CCN(C(=O)/C=C/C(C)=O)CC4)c3c2)cc1NS(=O)(=O)Nc1ccc(F)cc1F [Example 128, N-(2,4-difluorophenyl)[(2-methoxy-5-(4-(4-[(2E)-4-oxopent-2-enoyl]piperazin-1-yl)quinazolin-6-yl)pyridin-3-yl)amino]sulfonamide]	278 nM	21.7 nM			
CC(=O)/C=C/C(=O)N1CCN(c2ncnc3ccc(-c4cnc(O)c(NS(=O)(=O)c5ccc(F)cc5F)c4)cc23)CC1 [Example 129, (E)-2,4-difluoro-N-(2-hydroxy-5-(4-(4-(4-oxopent-2-enoyl)piperazin-1-yl)quinazolin-6-yl)pyridin-3-yl)benzenesulfonamide]			142 nM		
C=C(F)C(=O)N1CC2(CCN(c3ncnc4ccc(-c5cnc(OC)c(NS(=O)(=O)c6c(F)cc(F)cc6F)c5)cc34)CC2)C1 [Example 140, 2,4,6-trifluoro-N-(5-(4-(2-(2-fluoroacryloyl)-2,7-diazaspiro[3.5]nonan-7-yl)quinazoline-6-yl)-2-methoxypyridin-3-yl)benzenesulfonamide]	7.3 nM			0.43 nM	
COc1ncc(-c2ccc3ncnc(N4CC5(CN(C(=O)/C=C/C(C)=O)C5)C4)c3c2)cc1NS(=O)(=O)c1ccc(F)cc1F [Example 141]	80.6 nM			0.3 nM	
COc1ncc(-c2ccc3ncnc(N4CC5CC(C4)N5C(=O)/C=C/C(C)=O)c3c2)cc1NS(=O)(=O)c1ccc(F)cc1F [Example 142, (E)-2,4-difluoro-N-(2-methoxy-5-(4-(6-(4-oxopent-2-enoyl)-3,6-diazabicyclo[3.1.1]heptan-3-yl)quinazolin-6-yl)pyridin-3-yl)benzenesulfonamide]	351 nM			0.57 nM	
C=C(F)C(=O)N1C2CCC1CN(c1ncnc3ccc(-c4cnc(OC)c(NS(=O)(=O)c5ccc(F)cc5F)c4)cc13)C2 [Example 146, 2,4-difluoro-N-(5-(4-(8-(2-fluoroacryloyl)-3,8-diazabicyclo[3.2.1]octan-3-yl)quinazolin-6-yl)-2-methoxypyridin-3-yl)benzenesulfonamide]	82.1 nM			2.1 nM	
C=CC(=O)N1CCC(Nc2ncnc3ccc(-c4cnc(OC)c(NS(=O)(=O)c5ccc(F)cc5F)c4)cc23)C1 (centres unmarked) [Example 147, N-(5-(4-((1-acryloylpyrrolidin-3-yl)amino)quinazolin-6-yl)-2-methoxypyridin-3-yl)-2,4-difluorobenzenesulfonamide]	790 nM			1.6 nM	
COc1ncc(-c2ccc3ncnc(NC4CCN(C(=O)/C=C/C(C)=O)C4)c3c2)cc1NS(=O)(=O)c1ccc(F)cc1F (centres unmarked) [Example 148, (E)-2,4-difluoro-N-(2-methoxy-5-(4-((1-(4-oxopent-2-enoyl)pyrrolidin-3-yl)amino)quinazolin-6-yl)pyridin-3-yl)benzenesulfonamide]	638 nM			9.2 nM	
COc1ncc(-c2ccc3ncnc(N4CC5CCC(C4)N5C(=O)/C=C/C(C)=O)c3c2)cc1NS(=O)(=O)c1ccc(F)cc1 [Example 149, 4-fluoro-N-(2-methoxy-5-(4-(8-((E)-4-oxopent-2-enoyl)-3,8-diazabicyclo[3.2.1]octan-3-yl)quinazolin-6-yl)pyridin-3-yl)benzenesulfonamide]	90.7 nM			3.3 nM	
COc1ncc(-c2ccc3ncnc(N4CC5CCC(C4)N5C(=O)/C=C/C(C)=O)c3c2)cc1NS(=O)(=O)c1ccccc1F [Example 151, 2-fluoro-N-(2-methoxy-5-(4-(8-((E)-4-oxopent-2-enoyl)-3,8-diazabicyclo[3.2.1]octan-3-yl)quinazolin-6-yl)pyridin-3-yl)benzenesulfonamide]	80.3 nM			5.9 nM	
C=C(F)C(=O)N1C2CCC1CN(c1ncnc3ccc(-c4cnc(OC)c(NS(=O)(=O)c5c(F)cc(F)cc5F)c4)cc13)C2 [Example 156, 2,4,6-trifluoro-N-(5-(4-(8-(2-fluoroacryloyl)-3,8-diazabicyclo[3.2.1]octan-3-yl)quinazolin-6-yl)-2-methoxypyridin-3-yl)benzenesulfonamide]	29.7 nM			0.5 nM	
COc1ncc(-c2ccc3ncnc(N4CC5CN(C(=O)/C=C/C(C)=O)CC5C4)c3c2)cc1NS(=O)(=O)c1ccc(F)cc1F (centres unmarked) [Example 157, (E)-2,4-difluoro-N-(2-methoxy-5-(4-(5-(4-oxopent-2-enoyl)hexahydropyrrolo[3,4-c]pyrrol-2(1H)-yl)quinazolin-6-yl)pyridin-3-yl)benzenesulfonamide]	128 nM			1.3 nM	
COc1ncc(-c2ccc3ncnc(N4CC5CCC(C4)N5C(=O)/C=C/C(C)=O)c3c2)cc1NS(=O)(=O)c1c(F)cncc1F [Example 162, 3,5-difluoro-N-(2-methoxy-5-(4-(8-((E)-4-oxopent-2-enoyl)-3,8-diazabicyclo[3.2.1]octan-3-yl)quinazolin-6-yl)pyridin-3-yl)pyridine-4-sulfonamide]	141 nM			2.4 nM	
COc1ncc(-c2ccc3ncnc(N4CCC5(CC4)CN(C(=O)/C=C/C(C)=O)C5)c3c2)cc1NS(=O)(=O)c1c(F)cncc1F [Example 163, (E)-3,5-difluoro-N-(2-methoxy-5-(4-(2-(4-oxopent-2-enoyl)-2,7-diazaspiro[3.5]nonan-7-yl)quinazolin-6-yl)pyridin-3-yl)pyridine-4-sulfonamide]	190 nM			0.25 nM	
COc1ncc(-c2ccc3ncnc(N4CCN(C(=O)/C=C/C(C)=O)C[C@@H]4C)c3c2)cc1NS(=O)(=O)c1c(F)cncc1F [Example 164, (S,E)-3,5-difluoro-N-(2-methoxy-5-(4-(2-methyl-4-(4-oxopent-2-enoyl)piperazin-1-yl)quinazolin-6-yl)pyridin-3-yl)pyridine-4-sulfonamide]	156 nM			2.8 nM	
COc1ncc(-c2nc(N3CCOCC3)nc3c(CN4CCC(C(C)(C)O)CC4)cc(F)cc23)cc1NS(C)(=O)=O [Linperlisib, reference compound]					18 nM
